Results published in US10363239B2, “Method for inhibiting growth of cancer cells” (Pain Therapeutics, Inc., priority 2013, dated 2019).

Key:
[1] = tested on: small-cell lung carcinoma cells; assay: Glucose deprivation-induced apoptosis markers (cleaved PARP-1, caspase-3) by Western blotting; format: cell-based, human; conditions: 1 nM; Day 3 and 4
Protocol: . Cells were washed, solubilized and the levels of apoptotic markers PARP-1 and caspase-3 (19- and 17-KDa) in the obtained cell lysates were determined by Western blotting. The density of protein bands was quantified by densitometric scanning. […] . […] N=5. *p<0.01 compared to Day 0. #p<0.01 compared to vehicle (open bars).
. The cells were washed with PBS, incubated in 0.1% fetal bovine serum (FBS) for 16 hours and incubated in glucose-free 0.1% FBS-containing medium for up to 4 days in the presence of vehicle or 1 nM Compound C0105. The cells in the entire well were collected by centrifugation. […] The protein concentrations were measured by the Bradford method.
The cells were homogenized and the obtained homogenates were centrifuged to remove nucleus and mitochondria. […] The level of apoptotic cell death was determined using Western blotting in 50 μg solubilized cell lysates with antibodies against cleaved PARP-1 (Asp^214) and caspase-3 (Asp^175), both at 1:1000 dilution. […] Bands at the relevant molecular masses of Ki67 and PCNA were quantified by densitometric scan. Membranes were stripped, washed 5× in 0.1% PBST (2 minutes each wash) and the actin content analyzed by immunoblotting using monoclonal anti-actin to illustrate even loading.

[2] = biological target: T1, FLNA from MiaPaCa2 cells (Homo sapiens, UniProt P21333); assay: Isoelectric focusing of purified FLNA (FLNA conformation); format: cell-based; conditions: 1 nM; 4 days
T1 construct: FLNA was purified separately from MiaPaCa2 cells and from HPECs; endogenous in cells; host or cells: MiaPaCa2 (MIA PaCa-2, ATCC CRL-1420)
T1 sequence (P21333 whole entry): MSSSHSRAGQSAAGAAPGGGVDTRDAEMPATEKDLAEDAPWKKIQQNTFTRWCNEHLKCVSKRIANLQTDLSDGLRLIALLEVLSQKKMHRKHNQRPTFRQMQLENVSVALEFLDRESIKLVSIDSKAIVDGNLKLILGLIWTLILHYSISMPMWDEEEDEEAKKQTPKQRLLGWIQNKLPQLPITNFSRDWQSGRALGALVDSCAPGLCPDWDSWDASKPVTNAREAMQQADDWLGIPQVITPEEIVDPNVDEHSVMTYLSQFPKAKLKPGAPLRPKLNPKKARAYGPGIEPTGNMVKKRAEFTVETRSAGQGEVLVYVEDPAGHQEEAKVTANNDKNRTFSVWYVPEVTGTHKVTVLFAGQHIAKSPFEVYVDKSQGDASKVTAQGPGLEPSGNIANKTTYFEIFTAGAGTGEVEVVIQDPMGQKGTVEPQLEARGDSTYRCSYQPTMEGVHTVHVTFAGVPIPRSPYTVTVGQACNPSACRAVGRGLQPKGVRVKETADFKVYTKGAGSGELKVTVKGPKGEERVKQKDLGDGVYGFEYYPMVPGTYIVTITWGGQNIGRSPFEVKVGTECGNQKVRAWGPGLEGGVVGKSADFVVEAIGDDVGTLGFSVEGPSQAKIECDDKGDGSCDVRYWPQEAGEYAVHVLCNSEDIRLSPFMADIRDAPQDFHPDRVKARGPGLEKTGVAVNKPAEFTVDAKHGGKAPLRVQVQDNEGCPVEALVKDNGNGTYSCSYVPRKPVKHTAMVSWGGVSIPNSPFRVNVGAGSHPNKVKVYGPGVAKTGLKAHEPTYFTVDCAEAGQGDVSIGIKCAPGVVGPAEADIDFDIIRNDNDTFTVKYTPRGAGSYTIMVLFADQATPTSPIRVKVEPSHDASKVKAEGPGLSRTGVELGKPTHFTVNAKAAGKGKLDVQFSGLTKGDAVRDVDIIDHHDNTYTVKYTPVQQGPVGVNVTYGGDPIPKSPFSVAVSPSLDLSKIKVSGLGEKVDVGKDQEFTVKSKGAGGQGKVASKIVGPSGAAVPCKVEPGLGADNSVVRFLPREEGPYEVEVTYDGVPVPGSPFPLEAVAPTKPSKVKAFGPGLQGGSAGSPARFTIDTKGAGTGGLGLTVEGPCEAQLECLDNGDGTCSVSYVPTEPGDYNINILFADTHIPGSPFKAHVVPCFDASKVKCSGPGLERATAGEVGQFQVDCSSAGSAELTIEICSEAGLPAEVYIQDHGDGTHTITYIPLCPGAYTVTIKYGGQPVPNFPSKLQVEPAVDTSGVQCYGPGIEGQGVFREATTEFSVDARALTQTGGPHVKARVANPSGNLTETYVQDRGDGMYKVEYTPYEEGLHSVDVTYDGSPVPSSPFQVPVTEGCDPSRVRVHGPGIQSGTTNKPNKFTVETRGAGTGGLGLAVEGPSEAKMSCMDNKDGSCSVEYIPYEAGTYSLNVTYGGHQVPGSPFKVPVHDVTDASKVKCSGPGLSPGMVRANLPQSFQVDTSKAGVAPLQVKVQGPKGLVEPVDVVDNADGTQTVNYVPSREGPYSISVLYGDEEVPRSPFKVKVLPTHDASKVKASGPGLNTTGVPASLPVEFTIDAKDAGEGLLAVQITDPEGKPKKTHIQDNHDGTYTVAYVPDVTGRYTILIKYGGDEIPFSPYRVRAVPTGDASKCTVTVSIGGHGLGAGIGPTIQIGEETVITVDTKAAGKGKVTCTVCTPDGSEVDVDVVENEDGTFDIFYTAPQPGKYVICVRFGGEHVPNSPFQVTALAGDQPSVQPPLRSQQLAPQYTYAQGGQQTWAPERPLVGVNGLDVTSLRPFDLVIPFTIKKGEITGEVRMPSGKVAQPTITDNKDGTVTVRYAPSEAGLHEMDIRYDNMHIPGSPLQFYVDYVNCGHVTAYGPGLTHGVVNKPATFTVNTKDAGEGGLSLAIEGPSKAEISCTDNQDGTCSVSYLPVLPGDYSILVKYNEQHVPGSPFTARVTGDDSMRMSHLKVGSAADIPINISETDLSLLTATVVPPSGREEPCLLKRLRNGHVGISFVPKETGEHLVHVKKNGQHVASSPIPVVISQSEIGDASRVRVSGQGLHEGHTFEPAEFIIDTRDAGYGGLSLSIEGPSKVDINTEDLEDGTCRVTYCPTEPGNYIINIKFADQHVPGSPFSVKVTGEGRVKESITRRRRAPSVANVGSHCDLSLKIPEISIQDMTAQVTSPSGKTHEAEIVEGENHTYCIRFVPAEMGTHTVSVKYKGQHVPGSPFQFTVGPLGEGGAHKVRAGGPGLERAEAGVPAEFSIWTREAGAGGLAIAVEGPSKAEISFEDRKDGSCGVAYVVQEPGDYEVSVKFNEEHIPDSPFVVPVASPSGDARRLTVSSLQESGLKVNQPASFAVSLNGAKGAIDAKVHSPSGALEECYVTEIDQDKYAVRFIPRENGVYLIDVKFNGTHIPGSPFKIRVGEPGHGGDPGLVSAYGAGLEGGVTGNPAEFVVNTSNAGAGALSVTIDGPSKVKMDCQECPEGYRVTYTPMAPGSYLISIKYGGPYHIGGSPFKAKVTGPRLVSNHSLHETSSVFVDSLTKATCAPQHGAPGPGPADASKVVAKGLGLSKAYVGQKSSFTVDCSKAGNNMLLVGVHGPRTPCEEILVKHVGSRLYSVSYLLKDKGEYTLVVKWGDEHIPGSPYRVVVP
Protocol: (§1) FIGS. 33A and 33B show isoelectric focusing result data (FIG. 33A) for FLNA separately isolated from HPEC and MiaPaCa2 cells after four days of incubation (contact) of those cells with medium alone or medium plus 1 nM Compound C0105. […] N=4, *p<0.01.
(§2) To determine whether the conformation of FLNA is different in cancer and primary normal cells and whether Compound C0105 affects FLNA conformation, FLNA was purified from cancer and primary cells after incubation with vehicle or 1 nM Compound C0105 for 4 days. Cells were washed with PBS, scraped, sonicated for 10 seconds and solubilized using 0.5% digitonin/0.2% sodium cholate/0.5% NP-40 at 4° C. with end-over-end rotation for 1 hour. Following centrifugation to remove insoluble debris, the obtained lysate was treated with 1% SDS for 1 minute to dissociate the […] proteins, diluted 10-fold with immunoprecipitation buffer, and immunopurified with immobilized anti-FLNA. The resultant FLNA was eluted using 200 μl antigen-elution buffer (Thermo), neutralized immediately with 100 mM Tris HCl (pH9.0), diluted to 500 μl with 50 mM Tris HCl, pH7.5, and passed through a 100 kD cut-off filter.
(§3) The purified FLNA was suspended in the 100 μl isoelectric focusing sample buffer. […]

[3] = biological target: T2, FLNA from HPECs (Homo sapiens, UniProt P21333); assay: as above; format: cell-based; conditions: 1 nM; 4 days
T2 construct: FLNA was purified separately from MiaPaCa2 cells and from HPECs; endogenous in cells; host or cells: primary human pancreatic epithelial cells (HPEC)
T2 sequence (P21333 whole entry): as above
Protocol: as §1, §2, §3

[4] = tested on: non-small cell lung cancer cell lines; assay: Glucose utilization; format: cell-based, human; conditions: data not shown
Protocol: To determine the effect of Compound C0105 on glucose utilization, the cancer and primary normal cells were plated extremely thinly (10%). Once cells attached, Compound C0105 was added at 0.1, 0.5, 1 or 5 nM in the medium twice daily (6 hours apart) for 4 days. The cells were serum-deprived (glucose deprived) for 2 hours. Cells were then rinsed with 1 ml PBS and glucose uptake was assessed by contacting the cells with [^3H]glucose (0.01 uCi/l ml) in Kreb's Ringer for 2 hours. Cells were then rinsed with 1 ml PBS 3 times, scraped off and their glucose content counted by liquid scintillation spectrophotometry.
. Primary lung fibroblast cells were used as control, non-cancerous cells to illustrate the difference in effects observed (FIG. 1C, FIGS. 1H-1I).

CN1CCC2(CC1)NCC(=O)N2Cc1ccccc1 [Compound C0105]
Glucose deprivation-induced cell death by cleaved PARP-1 and caspase-3 [1]: reduces glucose deprivation-induced cell death | Fraction of FLNA restored to the conformation (pI) present in HPECs [2]: about 75% | pI of FLNA [3]: no effect on the pI | Glucose utilization [4]: decreased the elevated glucose utilization
